Like-named read-outs stand apart in the source and are kept apart here.
What was measured:
MDAMB453 = assay: Cell proliferation assay with Alamar Blue (AB), MDAMB453; format: cell-based
Procedure: (§1) A representative cell-proliferation assay protocol using Alamar Blue dye (stored at 4° C., use 20 ul per well) is described hereafter.
(§2) a. Split and trypsinize cells.
(§3) b. Count cells using hemocytometer.
(§4) c. Plate 4,000-5,000 cells per well in 100 μl of medium and seed into a 96-well plate according to the following plate layout. Add cell culture medium only to wells B10 to B12.
(§5) d. Add 100 μl of 2× drug dilution to each well in a concentration shown in the plate layout above. […] Total volume is 200 μl/well.
(§6) e. Incubate four (4) days at 37° C., 5% CO2 in a humidified incubator.
(§7) f. Add […] Alamar Blue reagent to each well.
(§8) g. Incubate for four (4) hours at 37° C., 5% CO2 in a humidified incubator.
(§9) h. Record fluorescence at an excitation wavelength of 544 nm and emission wavelength of 590 nm using a microplate reader.
(§10) In the assays, cells are cultured with a test compound for approximately four days, the dye is then added to the cells and fluorescence of […] dye is detected after approximately four hours. Different types of cells can be utilized in the assays (e.g., HCT-116 human colorectal carcinoma cells, PC-3 human prostatic cancer cells, MDA-MB231 human breast cancer cells, K-562 human chronic myelogenous leukemia (CML) cells, MiaPaca human pancreatic carcinoma cells, MV-4 human acute myeloid leukemia cells, and BxPC3 human pancreatic adenocarcinoma cells).

[1] = test system: BxPC3 human pancreatic adenocarcinoma cells; assay: Cell proliferation assay with Alamar Blue (AB), BxPC3; format: cell-based
Procedure: as §1, §2, §3, §4, §5, §6, §7, §8, §9, §10

CK2 ααββ = CK2 ααββ (Homo sapiens (Human), UniProt P68400); assay: CK2 assay (cell-free, 33P-ATP, phosphocellulose filter plate); format: biochemical
Sequence of CK2 ααββ (P68400 whole entry): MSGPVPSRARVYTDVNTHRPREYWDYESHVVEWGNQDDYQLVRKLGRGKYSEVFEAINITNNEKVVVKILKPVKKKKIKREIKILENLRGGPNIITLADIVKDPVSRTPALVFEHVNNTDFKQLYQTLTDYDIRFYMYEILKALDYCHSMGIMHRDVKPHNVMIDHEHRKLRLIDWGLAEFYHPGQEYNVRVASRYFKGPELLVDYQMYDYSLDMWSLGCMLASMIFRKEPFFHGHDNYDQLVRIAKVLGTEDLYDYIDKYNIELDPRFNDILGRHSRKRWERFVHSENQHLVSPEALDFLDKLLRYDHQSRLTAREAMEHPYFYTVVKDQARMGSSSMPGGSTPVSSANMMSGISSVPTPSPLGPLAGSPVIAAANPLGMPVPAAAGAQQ
Sequence of CK2 ααββ (P67870 whole entry partner): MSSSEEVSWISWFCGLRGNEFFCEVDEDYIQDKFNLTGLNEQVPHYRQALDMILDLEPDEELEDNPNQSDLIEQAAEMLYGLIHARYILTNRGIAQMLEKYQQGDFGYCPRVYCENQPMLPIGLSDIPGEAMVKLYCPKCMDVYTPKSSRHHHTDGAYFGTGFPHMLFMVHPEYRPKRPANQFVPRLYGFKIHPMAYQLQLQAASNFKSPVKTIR
Procedure: Modulatory activity of compounds described herein was assessed in vitro in cell-free CK2 assays by the following method.
Reactions were maintained for 40 min at 23° C. The reactions were quenched with 100 ul of 0.75% Phosphoric acid, then transferred to and filtered through a Phosphocellulose filter plate (Millipore, MSPH-N6B-50). After washing each well 4 times with 0.75% Phosphoric acid, scintillation fluid (20 uL) was added to each well and the residual radioactivity was measured using a Wallac luminescence counter.

recombinant human PIM2 = recombinant human PIM2 (Homo sapiens (Human), UniProt Q9P1W9); assay: PIM-2 assay (33P-ATP filter binding); format: biochemical; details: for IC50: PIM2: IC50 (5 μM ATP), 5 μM ATP; for PIM2: % inh […]: at […] compound
Sequence of recombinant human PIM2 (Q9P1W9 whole entry): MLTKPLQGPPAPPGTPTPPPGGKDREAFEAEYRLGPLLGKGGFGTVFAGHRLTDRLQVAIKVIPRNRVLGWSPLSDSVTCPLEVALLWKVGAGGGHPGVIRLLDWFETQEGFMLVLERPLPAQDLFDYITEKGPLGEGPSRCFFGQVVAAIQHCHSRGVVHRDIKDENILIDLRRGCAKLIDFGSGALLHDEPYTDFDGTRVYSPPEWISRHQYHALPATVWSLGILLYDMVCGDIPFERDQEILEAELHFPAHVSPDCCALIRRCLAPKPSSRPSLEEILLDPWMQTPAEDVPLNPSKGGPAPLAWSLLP
Procedure: Test compounds dissolved and diluted in DMSO (2 μl) were added to a reaction mixture comprising 10 μl of 5× Reaction Buffer (40 mM MOPS pH 7.0, 5 mM EDTA), 10 μl of recombinant human PIM2 solution (4 ng PIM-2 dissolved in dilution buffer (20 mM MOPS pH 7.0; EDTA 1 mM; 5% Glycerol; 0.01% Brij 35; 0.1%; 0.1% 2-mercaptoethanol; 1 mg/ml BSA)) and 8 ul of water.

[2] = Homo sapiens, MDA-MB-453, MDAMB453 cells, read-out: AB: MDAMB453
[3] = Homo sapiens, BXPC-3, read-out: AB: BxPC3
[4] = MDAMB453 cells, read-out: AB: MDAMB453 IC50

Row | Compound | IC50 (MDAMB453; [2]) [nM] | IC50 [1, 3] [µM] | IC50 (CK2 ααββ) [nM] | IC50 (recombinant human PIM2) [nM] | IC50 (MDAMB453; [4]) [nM] | IC50 ([1]; read-out: AB: BxPC3 IC50) [µM] | PIM2: % inh […] (recombinant human PIM2) [%]
1 | O=C1NC(=O)/C(=C/c2cnn3c(Nc4cccc(C(=O)O)c4)cc(Nc4cccc(Cl)c4)nc23)N1 [Example D7] | 14200 | > 30 | < 100 | > 2500 |  |  | 
2 | CN1C(=O)NC(=Cc2cnn3c(NC4CC4)cc(Nc4ccc(C#N)cc4)nc23)C1=O [Example D42] |  |  | < 100 |  | 693 | 2.81 | −39.275
3 | Cc1c(Nc2ccc(C#N)cc2Cl)nc2c(C=C3NC(=O)NC3=O)cnn2c1NC1CC1 [Example D46] |  |  | < 10 |  | 6240 | 29.9 | 53.934
4 | O=C1NC(=O)/C(=C/c2cnn3c(NC4CC4)cc(Nc4cccc(OC(F)(F)F)c4)nc23)N1 [Example E1] | 17700 | 16.8 | < 10 | > 2500 |  |  | 
5 | C=CCOc1cccc(-c2cc(NC3CC3)n3ncc(/C=C4\NC(=O)NC4=O)c3n2)c1 [Example E4] | 1170 | 11.8 | < 10 | > 2500 |  |  | 
6 | CC(C)(C)OC(=O)N1CCN(C(=O)c2cccc(Nc3cc(Nc4cccc(Cl)c4)nc4c(/C=C5\NC(=O)NC5=O)cnn34)c2)CC1 [Example E7] | 364 | 3.01 | < 10 | 2020 |  |  | 
7 | CN1C(=O)NC(=Cc2cnn3c(NC4CC4)cc(Nc4ccc(C#N)c(Cl)c4)nc23)C1=O [Example E42] |  |  | < 100 |  | 1290 | 1.97 | −72.498
8 | Cc1c(Nc2ccc(-n3cccn3)cc2)nc2c(/C=C3\NC(=O)NC3=O)cnn2c1NC1CC1 [Example E46] |  |  | < 100 |  | 16600 | 20.9 | 49.545
9 | COc1cccc(Nc2cc(NC3CC3)n3ncc(/C=C4\NC(=O)NC4=O)c3n2)c1 [Example F1] | 2040 | 5.76 | < 10 | > 2500 |  |  | 
10 | O=C1NC(=O)/C(=C/c2cnn3c(NC4CC4)cc(-c4cccc(OCC5CC5)c4)nc23)N1 [Example F4] | 1300 | 6.59 | < 10 | > 2500 |  |  | 
11 | O=C1NC(=O)/C(=C/c2cnn3c(NC4CC4)cc(-c4ccc(F)c(C(=O)N5CCOCC5)c4)nc23)N1 [Example F5] | 948 | 1.81 | < 10 | > 2500 |  |  | 
12 | O=C1NC(=O)/C(=C/c2cnn3c(Nc4cccc(C(=O)N5CCNCC5)c4)cc(Nc4cccc(Cl)c4)nc23)N1 [Example F7] | 1590 | 14 | < 10 | 1230 |  |  | 
13 | CN1C(=O)NC(=Cc2cnn3c(NC4CC4)cc(Nc4ccccc4F)nc23)C1=O [Example F42] |  |  | < 100 |  | 29100 | > 30 | −17.549
14 | CC1CN(C(C)c2cccc(Nc3cc(NC4CC4)n4ncc(/C=C5\NC(=O)NC5=O)c4n3)c2)CC(C)O1 (stereo not drawn) [Example G1] | 10000 | > 30 | < 10 | > 2500 |  |  | 
15 | Cc1cc(COc2cccc(-c3cc(NC4CC4)n4ncc(/C=C5\NC(=O)NC5=O)c4n3)c2)no1 [Example G4] | 1150 | 1.19 | < 10 | > 2500 |  |  | 
16 | CN(C)CCNC(=O)c1cc(-c2cc(NC3CC3)n3ncc(/C=C4\NC(=O)NC4=O)c3n2)ccc1F [Example G5] | 435 | 1.84 | < 10 | > 2500 |  |  | 
17 | O=C1NC(=O)/C(=C/c2cnn3c(NC4CC4)cc(Nc4ccc(Cl)c(C(F)(F)F)c4)nc23)N1 [Example H1] | 991 | 3.21 | < 10 | > 2500 |  |  | 
18 | O=C1NC(=O)/C(=C/c2cnn3c(NC4CC4)cc(-c4cccc(OCC(=O)N5CCCC5)c4)nc23)N1 [Example H4] | 1960 | 14.5 | < 10 | > 2500 |  |  | 
19 | O=C1NC(=O)/C(=C/c2cnn3c(NC4CC4)cc(Nc4ccc(Cl)cc4)nc23)N1 [Example I1] | 11100 | 15.1 | < 10 | > 2500 |  |  | 
20 | CN(C)c1ccc(-c2cc(NC3CC3)n3ncc(/C=C4\NC(=O)NC4=O)c3n2)cc1 [Example I4] | 683 | 1.9 | < 100 | > 2500 |  |  | 
21 | O=C1NC(=O)/C(=C/c2cnn3c(NCc4cccnc4)cc(Nc4cccc(Cl)c4)nc23)N1 [Example I6] | 708 | 2.56 | < 1000 | 704 |  |  | 

Row | Compound | IC50 (MDAMB453; [2]) [nM] | IC50 [1, 3] [µM] | IC50 (CK2 ααββ) [nM] | IC50 (recombinant human PIM2) [nM] | IC50 (MDAMB453; [4]) [nM] | IC50 ([1]; read-out: AB: BxPC3 IC50) [µM] | PIM2: % inh […] (recombinant human PIM2) [%]
22 | O=C1NC(=O)/C(=C/c2cnn3c(NC4CC4)cc(Nc4cccc(C(F)(F)F)c4)nc23)N1 [Example J1] | 7120 | 3.92 | < 10 | 2480 |  |  | 
23 | O=C1NC(=O)/C(=C/c2cnn3c(NC4CC4)cc(-c4cccc(F)c4)nc23)N1 [Example J4] | 4750 | > 30 | < 10 | 867 |  |  | 
24 | NCc1cccc(-c2cc(NC3CC3)n3ncc(/C=C4\SC(=O)NC4=O)c3n2)c1 [Example J5] | > 30000 | 19 | < 1000 | 198 |  |  | 
25 | COc1ccc(Nc2cc(NC3CC3)n3ncc(/C=C4\NC(=O)NC4=O)c3n2)cc1Cl [Example K1] | 7710 | 5.66 | < 10 | > 2500 |  |  | 
26 | Nc1cc(NC2CC2)n2ncc(/C=C3\NC(=O)NC3=O)c2n1 [Example K2] | 11800 | 9.93 | < 10 | > 2500 |  |  | 
27 | O=C1NC(=O)/C(=C/c2cnn3c(NC4CC4)cc(-c4cccc(OCC5=NCCN5)c4)nc23)N1 [Example K4] | 1940 | 2.58 | < 100 | 1310 |  |  | 
28 | O=C1NC(=O)/C(=C/c2cnn3c(NC4CCNCC4)cc(Nc4cccc(Cl)c4)nc23)N1 [Example K5] | 1080 | 11 | < 100 | 2450 |  |  | 
29 | CC(O)CNc1cc(Nc2cccc(Cl)c2)nc2c(/C=C3\NC(=O)NC3=O)cnn12 (stereo not drawn) [Example K6] | 936 | 3.16 | < 1000 | 317 |  |  | 
30 | O=C1NC(=O)/C(=C/c2cnn3c(NC4CC4)cc(Nc4ccc(F)cc4Cl)nc23)N1 [Example L1] | 500 | 1.35 | < 10 | > 2500 |  |  | 
31 | O=C1NC(=O)/C(=C/c2cnn3c(NC4CC4)cc(-c4ccc(O)cc4)nc23)N1 [Example L4] | 1790 | 0.725 | < 10 | 1470 |  |  | 
32 | O=C1NC(=O)/C(=C/c2cnn3c(NC4CCN(C(=O)C5CC5)CC4)cc(Nc4cccc(Cl)c4)nc23)N1 [Example L5] | 993 | 2.4 | < 10 | > 2500 |  |  | 
33 | CC(C)(C)CC(=O)Nc1cc(NC2CC2)n2ncc(/C=C3\NC(=O)NC3=O)c2n1 [Example M2] | 6680 | 4.87 | < 10 | 359 |  |  | 
34 | O=C1NC(=O)/C(=C/c2cnn3c(NC4CC4)cc(-c4cccc(CN5CCOCC5)c4)nc23)N1 [Example M4] | > 30000 | 14.4 | < 10 | 1250 |  |  | 
35 | CC(C)(C)C(=O)N1CCC(Nc2cc(Nc3cccc(Cl)c3)nc3c(/C=C4\NC(=O)NC4=O)cnn23)CC1 [Example M5] | 874 | 10 | < 100 | > 2500 |  |  | 
36 | COC(=O)Nc1cc(NC2CC2)n2ncc(/C=C3\NC(=O)NC3=O)c2n1 [Example N2] | 3040 | 9.19 | < 10 | 845 |  |  | 
37 | O=C1NC(=O)/C(=C/c2cnn3c(NC4CC4)cc(-c4cccc(C(F)(F)F)c4)nc23)N1 [Example N4] | > 30000 | 12.5 | < 10 | > 2500 |  |  | 
38 | CN(C)C(=O)N1CCC(Nc2cc(Nc3cccc(Cl)c3)nc3c(/C=C4\NC(=O)NC4=O)cnn23)CC1 [Example N5] | 1570 | 17.4 | < 100 | > 2500 |  |  | 
39 | O=C1NC(=O)/C(=C/c2cnn3c(NC4CC4)cc(NC4CCCC4)nc23)N1 [Example O2] | 4510 | 10.4 | < 10 | > 2500 |  |  | 
40 | O=C1NC(=O)/C(=C/c2cnn3c(NC4CC4)cc(-c4ccnc(F)c4)nc23)N1 [Example O4] | 17100 | 1.23 | < 10 | > 2500 |  |  | 
41 | COC(=O)CN1CCC(Nc2cc(Nc3cccc(Cl)c3)nc3c(/C=C4\NC(=O)NC4=O)cnn23)CC1 [Example O5] | 1120 | 4.26 | < 100 | 2410 |  |  | 
42 | O=C1NC(=O)/C(=C/c2cnn3c(NCC(F)(F)F)cc(Nc4cccc(Cl)c4)nc23)N1 [Example O6] | 1140 | > 30 | < 10 | > 2500 |  |  | 
